Laboratory results taken from US7771711B2, “Sphingolipids' polyalkylamines conjugates” (Yissum Research Development Company of The Hebrew …, priority 2003, dated 2010).
Where a name gives a salt, the structure may show the parent alone.

What was measured:
[1] = ζ-potential by Zetasizer in 10 mM NaCl; format: physicochemical; settings: 25° C., 10 mM NaCl (pH 6.7)
Protocol: Liposomes' and micelles' ζ-potential was measured at 25° C. by the mobility of the particles in the applied electrical field using a Zetasizer 3000 HAS, Malvern Instruments, Malvern, UK, by diluting an aliquot of 40 μL in 20 mL of 10 mM NaCl (pH 6.7) and passing the solutions before measurement through a 0.2-μm syringe filter (Minisart, Sartorius, Germany). ζ-potential reflects the electrical potential at the plane of sheer (further away from the actual surface), which is sensed by the HCPE and C17HC.

[2] = Electrostatics from dissociation curve of bilayer-incorporated hydroxycoumarin probes (HCPE, C17HC); format: physicochemical; settings: for pKa C17HC: apparent pKa of hydroxycoumarin probe C17HC incorporated in the assemblies; for pKa HCPE: apparent pKa of hydroxycoumarin probe HCPE incorporated in the assemblies; for Surface potential C17HC / Surface potential HCPE: from shift of pKa of HC, Boltzmann equation; for Surface potential C17HC / Surface pH C17HC: probe C17HC; for Surface potential HCPE / Surface pH HCPE: probe HCPE
Protocol: The fluorescence excitation of the fluorophore 7-hydroxycoumarin (HC) moieties at 405 nm for HCPE and 380 nm for C17HC reflects the amount of the ionized species, while the excitation at 370 nm for HCPE and 330 nm for C17HC is the pH-independent isosbestic point, reflects the total amount of probe in the liposomes and micelles. Fluorescence emission was determined at 450 nm for all the above excitations. These two ratios (405/370 for HCPE, and 380/330 for C17HC) give the degree of ionization of HC fluoropore. The titration curve of HC, which is generated by plotting fluorescence excitation intensity ratio I405/I370 for HCPE and I380/I330 for C17HC at broad range of bulk pH, enables to calculate the apparent pKa of HC in HCPE and C17HC, respectively. The pKa of HC in the liposomal bilayer and/or in the micelles is calculated by fitting the above titration curve to the modified Henderson -Hasselbach equation, as described before [Zuidam & Barenholz (1997) ibid.]. The surface potential is then determined from the shift of pKa of HC that dramatically occurs in the strongly basic environment of cationic bilayer, according to the Boltzmann equation [Zuidam & Barenholz (1997) ibid.]

[3] = DPH fluorescence increase upon aggregation
Protocol: DPH dissolved in fetrahydrofuran was added at concentration of 0.25 ml %, to a range of concentrations of lipid dispersions and the fluorescence was recorded using 360 nm excitation and 430 nm emission on Perkin Elmer LS-50B. Then the fluorescence was plotted as function of lipid concentrations, and CMC point was detected as change of the slope of the curve by intersection of two straight lines above or below the CMC region.

[4] = Assembly size by dynamic light scattering (ALV back scattering); format: physicochemical
[5] = Level of hydration by Laurdan excitation general polarization; format: physicochemical; settings: 20 mM HEPES pH 7.4, 25° C.
Protocol: Hydration level of the different CCS-based lipid assemblies before and after the addition of plasmid DNA was determined by monitoring changes of “Laurdan excitation general polarization” according to which the higher the value obtained, the lower is the level of hydration.
6-Dodecanoyl-2-dimethylaminonaphthalene (Laurdan), purchased from Lambda (Graz, Austria), was used to follow changes in hydration level of the liposome bilayer. The naphthalene fluorophore of this probe is located at the hydrophilichydrophobic interface of the bilayer, and its 12-carbon chain is aligned parallel to the bilayer lipid acyl chains. When associated with lipids, Laurdan excitation and emission spectra depend strongly on the phase of the lipid. […] The lipid phases and level of hydration can be described by a Laurdan steady-state fluorescence parameter referred to as generalized polarization (GP) [Hirsch-Lerner D, Barenholz Y. Biochim Biophys Acta. […] Laurdan GP fluorescence spectra in lipid vesicles are dependent on the number of water molecules around the fluorescent moiety of Laurdan. Excitation GP was calculated according to the expression: GP340=(I440−I490)/(I440+I490) (1) where I440 and I490 are the intensities of fluorescence emission at wavelengths 440 and 490 nm and the excitation wavelength 340 nm. […]

[6] = base
[7] = Follow up (storage) assays of CCS lipid assemblies in HEPES pH 7.4 at 4° C.; format: physicochemical
Protocol: FIGS. 3A-3D show the results of the different follow up assays (follow up for 23 days). The follow up assay were based on TNBS test, which is a quantitative assay based on color reaction of TNBS reagent with primary amines.
The level of primary amines was determined with storage time in TNBS binding and described as % of freshly hydrated preparation. The change in Zeta potential, the change in the HCPE fluorescence 450 nm/370 mnm excitation ratio, and the change in size of the lipid assemblies (liposomes or micelles) formed was determined.
At 21 day, there were 6 time points of storage, which were assayed simultaneously for the following parameters: […]

[8] = listed as CCS Chloride (micelles)
[9] = listed as CCS Acetate (micelles)

CCCCCCCCCCCCC/C=C/[C@@H](O)[C@H](COC(=O)NCCCNCCCCNCCCN)NC(=O)CCCCCCCCCCCCCCC [CCS Chloride salt, N-palmitoyl D-erythro sphingosyl-1-carbamoyl spermine]
ζ-potential [1, 8]: 46.5 | pKa C17HC [2, 8]: 5.61 | pKa HCPE [2, 8]: 6.56 | Surface potential C17HC [2, 8]: 195.4 mV | Surface potential HCPE [2, 8]: 242.3 mV | Surface pH C17HC [2, 8]: 10.64 | Surface pH HCPE [2, 8]: 11.54 | Critical Micelle Concentration (CMC) [3]: 5 µM | Assembly size, diameter (mass-weight) [4]: micelles 25 nm;

CCCCCCCCCCCCC/C=C/[C@@H](O)[C@H](COC(=O)NCCCNCCCCNCCCN)NC(=O)CCCCCCCCCCCCCCC [CCS Acetate salt, N-palmitoyl D-erythro sphingosyl-1-carbamoyl spermine]
ζ-potential [1, 9]: 40 | pKa C17HC [2, 9]: 4.75 | Surface potential C17HC [2, 9]: 245.8 mV | Surface pH C17HC [2, 9]: 11.5 | Critical Micelle Concentration (CMC) [3]: 5 µM | Assembly size, diameter (mass-weight) [4]: micelles 6 nm;

CCCCCCCCCCCCC/C=C/[C@@H](O)[C@H](COC(=O)NCCCNCCCCNCCCN)NC(=O)CCCCCCCCCCCCCCC [CCS, N-palmitoyl D-erythro sphingosyl-1-carbamoyl spermine]
Hydration state before addition of DNA (Laurdan GP) [5]: high hydration state | Hydration state upon addition of DNA (Laurdan GP) ([5]; formation of lipoplexes): become dehydrated | Solubility in ethanol [6]: exhibited | Zeta potential during storage ([7]; HEPES buffer pH 7.4, 4° C., 23 days): no substantial change | Change in time in diameter of lipid assemblies during storage ([7]; HEPES pH 7.4, 4° C.): remained relatively small | Period of chemical stability of dispersions in aqueous phase ([7]; HEPES pH 7.4, 4° C.): at least 23 days | Surface pH and electrical surface potential over storage (HCPE 405/370 excitation ratio) ([7]; HEPES pH 7.4, 4° C., entire period of storage): unchanged | Level of primary amines upon storage (TNBS binding) ([7]; HEPES pH 7.4, 4° C., follow up for 23 days): no substantial change

CCCCCCCCCCCCC/C=C/[C@@H](O)[C@H](COC(=O)NCCCNCCCCNCCCN)NC(=O)CCCCCCCCCCCCCCC [CCS non-protonated, N-palmitoyl D-erythro sphingosyl-1-carbamoyl spermine]
ζ-potential [1]: 34 | pKa HCPE [2]: 7.23 | Surface potential HCPE [2]: 203.06 mV | Surface pH HCPE [2]: 10.87
